Assay results taken from US20120184504A1, “"The Use of a PAR-1 Antagonist in Combination with a P2Y12 ADP Receptor Antagonist for Inhibition of Thrombosis"” (priority 2009, published 2012).

What was measured:
Assay type in all cases: in vivo, cynomolgus monkeys
[1] = test system: platelet aggregation induced by ADP (10 μM); assay: Ex vivo whole blood platelet aggregation induced by ADP
Description: (§1) Animals instrumented to produce CFRs were administered SCH 602539, cangrelor, or a combination of SCH 602539 and cangrelor. The dosing regimens of SCH 602539 were selected to provide a broad range of inhibition of platelet aggregation induced by 1 μM thrombin receptor agonist peptide (TRAP), whereas the doses of cangrelor were selected to achieve 50%-60% inhibition of platelet aggregation induced by 10 μM ADP (the degree of inhibition obtained with clopidogrel). Group 1 received drug vehicle only (20% hydroxypropyl betacyclodextran or saline, 2 mL i.v.). Group 2 received SCH 602539 dissolved in 20% hydroxypropyl betacyclodextran administered as sequential i.v. boluses of 0.1, 0.3, or 1 mg/kg, at 30-minute intervals. Group 3 received cangrelor dissolved in saline and administered as an intravenous infusion of 0.1, 0.2, or 0.3 μg/kg/min for 30 minutes each. Group 4 received a combination of SCH 602539 bolus plus cangrelor infusion (at respective doses of: 1) 0.05 mg/kg+0.05 μg/kg/min; 2) 0.1 mg/kg+0.1 μg/kg/min; and 3) 0.15 mg/kg+0.1 μg/kg/min. The three dose regimens within each group were administered sequentially over the consecutive 30-minute periods coinciding with the re-induction of endothelial injury. Study drug or vehicle was administered after stable CFRs were achieved, and upon the completion of a 30-minute baseline CFR collection period, drug(s) or vehicle were administered incrementally (every 30 minutes) either as a bolus (SCH 602539) or as an infusion (cangrelor), and their effects on CFRs were monitored in the next three 30-minute observation periods. Blood samples (3 mL) were collected from the femoral arterial catheter at the end of each 30-minute observation period for assessment of ex vivo platelet aggregation and coagulation parameters.
(§2) Platelet aggregation studies were performed ex viva on blood samples obtained from the monkeys subjected to the Folts model, using a ChronoLog whole blood aggregometer (Model 540VS, Havertown, Pa.). Briefly, 0.5 mL of blood was incubated with 0.5 mL of normal saline at 37° C. in a cuvette containing a stir bar for 2 minutes. Platelet agonists used in this study included TRAP (3 μM), ADP (10 μM), the thromboxane A2 mimetic U46619 (10 μM), and collagen (3 μg/mL). Platelet aggregation was monitored for 5 minutes following the addition of the agonist. The peak aggregation response was recorded in ohms. In addition, standard coagulation parameters, including prothrombin time (PT), activated partial thromboplastin time (APTT), and activated clotting time (ACT), were assessed.

[2] = test system: platelet-dependent thrombus formation (cyclic flow reductions); assay: Folts model of thrombosis: cyclic flow reductions (CFRs) in the carotid artery; settings: for EC50 (dose regimen needed for 50% reduction in CFRs): from dose-response curve, Inhibitory Effect Emax model
From the text: The procedures used in this study are similar to the acute artery occlusion model developed by Folts and others. (Cook J J, Sitko G R, Bednar B, Condra C, Mellott M J, Feng D M, Nutt R F, Shafer J A, Gould R J, Connolly T M. An antibody against the exosite of the cloned thrombin receptor inhibits experimental arterial thrombosis in the African green monkey. Circulation. 1995; 91:2961-2971. Folts J. An in vivo model of experimental arterial stenosis, intimal damage, and periodic thrombosis. Circulation. 1991; 83(Suppl):IV3-IV14. Mousa S A, DeGrado W F, Mu D X, Kapil R P, Lucchesi B R, Reilly T M. Oral antiplatelet, antithrombotic efficacy of DMP 728, a novel platelet GPIIb/IIIa antagonist. Circulation. 1996; 93:537-543. Wu D, Vanhoorelbeke K, Cauwenberghs N, Meiring M, Depraetere H, Kotze H F, Deckmyn H. Inhibition of the von Willebrand (VWF)-collagen interaction by an antihuman VWF monoclonal antibody results in abolition of in vivo arterial platelet thrombus formation in baboons. Blood. 2002; 99:3623-3628).
Cynomolgus monkeys were sedated with ketamine HCl (10 mg/kg, IM) followed by anesthetization with sodium pentobarbital 20 mg/kg i.v. bolus and an infusion of 5 mg/kg/h i.v. for the duration of the experiment. Body temperature was maintained at 37°-39° C., and fluids infused were warmed to body temperature. The right carotid artery was exposed and dissected free of surrounding tissue, and a transonic flow probe of appropriate size was placed around the vessel. A Lexan constrictor (5 mm length) was placed onto the carotid artery. The constrictor was sized to abolish reactive hyperemia and to reduce mean carotid blood flow by no more than 50%-60%. Mechanical damage to the endothelium was induced in the constricted segment of the artery. Cyclic flow reductions due to platelet-dependent thrombus formation occurred shortly after placement of the constrictor over the region of endothelial damage. These gradual declines in carotid blood flow were occasionally interrupted spontaneously, but frequently required manual restoration by gently shaking the vessel. Flow reductions would typically return in 3-4 minutes. CFR frequency was calculated as the number of such cycles (CFRs) over a 30-minute period. On the basis of pilot studies, CFRs were evaluated in a maximum of four consecutive 30-minute collection periods, and mechanically mediated endothelial injury was performed at 30-minute intervals to ensure exposure of the thrombogenic endothelium.
as §1, with “Study drug or vehicle was administered after stable CFRs were achieved, and upon the completion of a 30-minute baseline CFR collection period, drug(s) or vehicle were administered incrementally (every 30 minutes) either as a bolus (SCH 602539) or as an infusion (cangrelor), and their effects on CFRs were monitored in the next three 30-minute observation periods. Blood samples (3 mL) were collected from the femoral arterial catheter at the end of each 30-minute observation period for assessment of ex vivo platelet aggregation and coagulation parameters.” left out

[3] = test system: platelet aggregation induced by TRAP (3 μM); assay: Ex vivo whole blood platelet aggregation induced by TRAP
Description: as §1, §2

Compound: CCOC(=O)N[C@@H]1CC[C@@H]2[C@@H](C1)C[C@H]1C(=O)O[C@H](C)[C@H]1[C@H]2/C=C/c1ccc(-c2ccccn2)cn1 [SCH 602539]
- Aggregation, ADP ([1]; SCH 602539 0.1 mg/kg, baseline 15 ± 3): 14 ± 2 ohms
- effect on aggregation induced by 10 μM ADP ([1]; SCH 602539 0.3 mg/kg and 1 mg/kg): did not affect
- Aggregation, ADP ([1]; SCH 602539 0.3 mg/kg, baseline 15 ± 3): 16 ± 3 ohms
- Aggregation, ADP ([1]; SCH 602539 1.0 mg/kg, baseline 15 ± 3): 13 ± 4 ohms
- CFR frequency reduced from baseline ([2]; SCH 602539 0.1 mg/kg i.v. bolus): approximately 50%
- CFRs ([2]; SCH 602539 0.1 mg/kg i.v. bolus, CFRs per 30-minute period, baseline 8.7 + 0.6): 4.3 + 1.3
- animals in which CFRs were completely abolished ([2]; SCH 602539 0.3 mg/kg): 4 of 6
- CFR frequency reduced from baseline ([2]; SCH 602539 0.3 mg/kg i.v. bolus, P<0.05 versus vehicle): > 80%
- CFRs ([2]; SCH 602539 0.3 mg/kg i.v. bolus, per 30-minute period, baseline 8.7 + 0.6): 1.7 + 1.2
- animals in which CFRs were completely abolished ([2]; SCH 602539 1.0 mg/kg): 4 of 6
- CFR frequency reduced from baseline ([2]; SCH 602539 1.0 mg/kg i.v. bolus, P<0.05 versus vehicle): > 80%
- CFRs ([2]; SCH 602539 1.0 mg/kg i.v. bolus, per 30-minute period, baseline 8.7 + 0.6): 1.8 + 1.3
- EC50 (dose regimen needed for 50% reduction in CFRs) ([2]; i.v. bolus): 0.10 ± 0.042 mg/kg
- Aggregation, TRAP ([3]; SCH 602539 0.1 mg/kg, baseline 14 ± 3): 9 ± 4 ohms
- Aggregation, TRAP ([3]; SCH 602539 0.3 mg/kg, baseline 14 ± 3): 2 ± 2 ohms
- inhibition of ex vivo platelet aggregation induced by 3 μM TRAP ([3]; two highest doses of SCH 602539 (0.3 mg/kg and 1 mg/kg)): > 80%

Compound: CSCCNc1nc(SCCC(F)(F)F)nc2c1ncn2[C@@H]1O[C@H](COP(=O)(O)OP(=O)(O)C(Cl)(Cl)P(=O)(O)O)[C@@H](O)[C@H]1O [Cangrelor]
- Aggregation, ADP ([1]; Cangrelor 0.1 μg/kg/min, baseline 14 ± 3): 10 ± 2 ohms
- Aggregation, ADP ([1]; Cangrelor 0.2 μg/kg/min, baseline 14 ± 3): 7 ± 1 ohms
- Aggregation, ADP ([1]; Cangrelor 0.3 μg/kg/min, baseline 14 ± 3): 6 ± 1 ohms
- CFRs ([2]; Cangrelor 0.1 μg/kg/min i.v. infusion 30 min, per 30-minute period, baseline 9.5 + 0.9): 5.7 + 1.5
- CFRs ([2]; Cangrelor 0.2 μg/kg/min i.v. infusion 30 min, baseline 9.5 + 0.9): 3.2 + 1.7
- CFRs ([2]; Cangrelor 0.3 μg/kg/min i.v. infusion 30 min, baseline 9.5 + 0.9): 1.2 + 1.3
- CFR frequency reduced from baseline ([2]; cangrelor 0.1 μg/kg/min 30-minute infusion): approximately 40%
- CFR frequency reduced from baseline ([2]; cangrelor 0.2 μg/kg/min 30-minute infusion, significant versus vehicle): ~70%
- CFR frequency reduced from baseline ([2]; cangrelor 0.3 μg/kg/min 30-minute infusion, significant versus vehicle): ~90%
- animals in which CFRs were completely prevented ([2]; cangrelor highest dose (0.3 μg/kg/min)): 5/6
- animals in which CFRs were completely prevented ([2]; cangrelor intermediate dose (0.2 μg/kg/min)): 3/6
- complete suppression of CFRs ([2]; cangrelor lowest dose (0.1 μg/kg/min)): No complete suppression
- EC50 (dose regimen needed for 50% reduction in CFRs) ([2]; i.v. infusion): 0.099 ± 0.039 µg/kg/min
- Aggregation, TRAP ([3]; Cangrelor 0.1 μg/kg/min, baseline 13 ± 3): 12 ± 3 ohms
- Aggregation, TRAP ([3]; Cangrelor 0.2 μg/kg/min, baseline 13 ± 3): 12 ± 3 ohms
- Aggregation, TRAP ([3]; Cangrelor 0.3 μg/kg/min, baseline 13 ± 3): 9 ± 3 ohms
- effect on aggregation stimulated by 3 μM TRAP ([3]; cangrelor 0.2 and 0.3 μg/kg/min): did not interfere
